Data from ChEMBL document CHEMBL3714741, “Compounds and compositions as ITPKB inhibitors” (2011).
Activity calls are given as the source filed them. The rule behind the calls is not given here.

Each molecule was assayed against T1, Kinase (Mus musculus, UniProt B2RXC2) (assay: Inhibition of mouse ITPKb (640 to 942 residues) expressed in Escherichia coli HK100 assessed as reduction in phosphorylation of IP3 to IP4 incubated for 60 mins by kinase-Glo ATP depletion assay).
T1 sequence (B2RXC2 whole entry): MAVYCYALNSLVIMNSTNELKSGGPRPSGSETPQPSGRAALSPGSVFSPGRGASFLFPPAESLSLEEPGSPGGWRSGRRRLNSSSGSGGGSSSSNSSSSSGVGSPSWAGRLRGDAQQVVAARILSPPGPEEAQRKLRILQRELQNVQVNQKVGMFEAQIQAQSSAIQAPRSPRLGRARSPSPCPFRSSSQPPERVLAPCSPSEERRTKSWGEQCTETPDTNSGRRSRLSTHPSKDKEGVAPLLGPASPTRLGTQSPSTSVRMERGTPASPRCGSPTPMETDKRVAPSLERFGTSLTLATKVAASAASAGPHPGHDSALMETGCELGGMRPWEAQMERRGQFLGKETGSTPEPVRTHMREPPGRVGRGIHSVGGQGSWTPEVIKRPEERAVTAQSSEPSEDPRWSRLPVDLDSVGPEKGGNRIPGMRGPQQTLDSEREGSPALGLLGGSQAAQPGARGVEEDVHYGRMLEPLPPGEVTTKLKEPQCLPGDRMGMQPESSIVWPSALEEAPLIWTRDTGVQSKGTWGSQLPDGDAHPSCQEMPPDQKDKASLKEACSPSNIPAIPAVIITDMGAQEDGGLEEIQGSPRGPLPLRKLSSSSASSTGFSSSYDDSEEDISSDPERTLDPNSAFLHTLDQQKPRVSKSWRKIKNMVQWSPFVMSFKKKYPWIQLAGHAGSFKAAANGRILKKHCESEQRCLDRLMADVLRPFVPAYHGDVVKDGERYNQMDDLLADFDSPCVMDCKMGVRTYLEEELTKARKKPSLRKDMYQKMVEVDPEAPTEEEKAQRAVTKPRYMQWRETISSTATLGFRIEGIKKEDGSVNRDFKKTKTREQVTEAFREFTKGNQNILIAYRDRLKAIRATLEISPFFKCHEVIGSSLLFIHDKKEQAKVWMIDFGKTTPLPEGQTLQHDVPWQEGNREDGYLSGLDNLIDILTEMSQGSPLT

Row | IC50 [µM] | SMILES
1 | 10 | Cc1cnc(-c2n[nH]cc2CN2CCN(c3ccc(C(F)(F)F)cn3)[C@H](C)C2)[nH]1

Each molecule was assayed against T2, Inositol-trisphosphate 3-kinase B (Homo sapiens) (UniProt P27987) (assay: Inhibition of ITPKb in human Jurkat cells assessed as reduction in conversion of IP3 to IP4 using [3H]-myo-inositol incubated for 5 mins by beta-RAM radio-HPLC method).
T2 sequence (whole entry): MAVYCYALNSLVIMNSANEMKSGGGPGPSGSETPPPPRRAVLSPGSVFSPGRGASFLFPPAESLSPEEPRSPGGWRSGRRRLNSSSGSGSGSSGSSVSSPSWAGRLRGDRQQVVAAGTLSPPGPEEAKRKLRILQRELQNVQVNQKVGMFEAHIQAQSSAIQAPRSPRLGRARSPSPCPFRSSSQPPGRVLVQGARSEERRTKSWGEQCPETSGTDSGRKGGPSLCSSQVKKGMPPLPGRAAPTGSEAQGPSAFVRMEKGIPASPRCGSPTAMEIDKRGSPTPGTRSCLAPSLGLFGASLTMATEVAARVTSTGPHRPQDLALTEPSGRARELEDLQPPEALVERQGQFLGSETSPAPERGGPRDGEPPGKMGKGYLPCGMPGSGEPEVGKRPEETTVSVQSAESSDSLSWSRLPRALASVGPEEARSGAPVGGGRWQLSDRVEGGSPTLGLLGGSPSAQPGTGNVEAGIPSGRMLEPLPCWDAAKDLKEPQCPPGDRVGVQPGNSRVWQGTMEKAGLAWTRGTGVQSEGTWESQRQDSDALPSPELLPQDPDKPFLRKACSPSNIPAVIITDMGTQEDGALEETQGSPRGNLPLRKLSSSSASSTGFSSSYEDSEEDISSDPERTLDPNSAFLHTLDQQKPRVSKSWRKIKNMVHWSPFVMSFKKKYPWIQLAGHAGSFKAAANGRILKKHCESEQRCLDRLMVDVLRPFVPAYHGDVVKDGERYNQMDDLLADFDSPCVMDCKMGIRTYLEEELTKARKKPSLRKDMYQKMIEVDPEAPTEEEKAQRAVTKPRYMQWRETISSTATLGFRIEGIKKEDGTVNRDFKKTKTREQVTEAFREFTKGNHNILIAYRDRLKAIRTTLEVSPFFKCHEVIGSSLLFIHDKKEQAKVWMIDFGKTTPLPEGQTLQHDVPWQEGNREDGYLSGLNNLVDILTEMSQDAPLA
Assay type: cell-based

Row | SMILES | inhibition
2 | C[C@@H]1CN(Cc2c[nH]nc2-c2ccnc3[nH]ccc23)CCN1c1ccc(C(F)(F)F)cn1 | Active
3 | C[C@@H]1CN(Cc2c[nH]nc2-c2nc(C(F)(F)F)c[nH]2)CCN1c1ccc(C(F)(F)F)cn1 | Active
4 | C[C@@H]1CN(Cc2c[nH]nc2C2CCNCC2)CCN1c1ccc(C(F)(F)F)cn1 | Active
5 | C[C@@H]1CN(Cc2c[nH]nc2-c2nc(-c3ccccc3)c[nH]2)CCN1c1ccc(C(F)(F)F)cn1 | Active
6 | C[C@@H]1CN(Cc2c[nH]nc2C2=CCN(C=O)CC2)CCN1c1ccc(C(F)(F)F)cn1 | Active
7 | C[C@@H]1CN(Cc2c[nH]nc2C(=O)Nc2cc(-c3ccco3)n[nH]2)CCN1c1ccc(C(F)(F)F)cn1 | Active
8 | C[C@@H]1CN(Cc2c[nH]nc2-c2nc3c([nH]2)CCCC3)CCN1c1ccc(C(F)(F)F)cn1 | Active
9 | C[C@@H]1CN(Cc2c[nH]nc2-c2cc(C(=O)N(C)C)c[nH]2)CCN1c1ccc(C(F)(F)F)cn1 | Active
10 | C[C@@H]1CN(Cc2c[nH]nc2C2=CCN(C(=O)CCO)CC2)CCN1c1ccc(C(F)(F)F)cn1 | Active
11 | CNC(=O)c1c[nH]c(-c2n[nH]cc2CN2CCN(c3ccc(C(F)(F)F)cn3)[C@H](C)C2)c1 | Active
12 | C[C@@H]1CN(Cc2c[nH]nc2C(=O)N2CCC(O)CC2)CCN1c1ccc(C(F)(F)F)cn1 | Active
13 | N#Cc1c[nH]c(-c2n[nH]cc2CN2CCN(c3ccc(C(F)(F)F)cn3)[C@H](C(F)(F)F)C2)c1 | Active
14 | C[C@@H]1CN(Cc2c[nH]nc2C(=O)N2CC(O)C2)CCN1c1ccc(C(F)(F)F)cn1 | Active
15 | C[C@@H]1CN(Cc2c[nH]nc2C(=O)Nc2ccncc2)CCN1c1ccc(C(F)(F)F)cn1 | Active
16 | C[C@@H]1CN(Cc2c[nH]nc2-c2cc(C(=O)NCCO)c[nH]2)CCN1c1ccc(C(F)(F)F)cn1 | Active
17 | C[C@@H]1CN(Cc2c[nH]nc2-c2nc3cc(F)ccc3[nH]2)CCN1c1ccc(C(F)(F)F)cn1 | Active
18 | COC(=O)c1ccc(-c2n[nH]cc2CN2CCN(c3ccc(C(F)(F)F)cn3)[C@H](C)C2)o1 | Active

Row | SMILES | inhibition
19 | C[C@@H]1CN(Cc2c[nH]nc2C(=O)N2CCC(O)C2)CCN1c1ccc(C(F)(F)F)cn1 (some centres undefined) | Active
20 | C[C@@H]1CN(Cc2c[nH]nc2-c2nc3cc(C#N)ccc3[nH]2)CCN1c1ccc(C(F)(F)F)cn1 | Active
21 | Cc1cc(NC(=O)c2n[nH]cc2CN2CCN(c3ccc(C(F)(F)F)cn3)[C@H](C)C2)n(CCN(C)C)n1 | Active
22 | CC(=O)N1CC=C(c2n[nH]cc2CN2CCN(c3ccc(C(F)(F)F)cn3)[C@H](C)C2)CC1 | Active
23 | C[C@@H]1CN(Cc2c[nH]nc2C(=O)Nc2nc[nH]c2C#N)CCN1c1ccc(C(F)(F)F)cn1 | Active
24 | C[C@@H]1CN(Cc2c[nH]nc2C(=O)Nc2n[nH]cc2C#N)CCN1c1ccc(C(F)(F)F)cn1 | Active
25 | C[C@@H]1CN(Cc2c[nH]nc2-c2nc3cnccc3[nH]2)CCN1c1ccc(C(F)(F)F)cn1 | Active
26 | C[C@@H]1CN(Cc2c[nH]nc2-c2nc3ccccc3[nH]2)CCN1c1ccc(C(F)(F)F)cn1 | Active
27 | FC(F)(F)c1ccc(N2CCN(Cc3c[nH]nc3-c3cccs3)CC2)nc1 | Active
28 | CC(O)CNC(=O)c1c[nH]c(-c2n[nH]cc2CN2CCN(c3ccc(C(F)(F)F)cn3)[C@H](C)C2)c1 (some centres undefined) | Active
29 | C[C@@H]1CN(Cc2c[nH]nc2-c2ccc3cnccc3c2)CCN1c1ccc(C(F)(F)F)cn1 | Active
30 | NC(=O)c1c[nH]c(-c2n[nH]cc2CN2CCN(c3ccc(C(F)(F)F)cn3)[C@H](C(F)(F)F)C2)c1 | Active
31 | C[C@@H]1CN(Cc2c[nH]nc2-c2cc(C(=O)N[C@@H](C)CO)c[nH]2)CCN1c1ccc(C(F)(F)F)cn1 | Active
32 | C[C@@H]1CN(Cc2c[nH]nc2C2=CCNCC2)CCN1c1ccc(C(F)(F)F)cn1 | Active
33 | C[C@@H]1CN(Cc2c[nH]nc2-c2c[nH]c3ncccc23)CCN1c1ccc(C(F)(F)F)cn1 | Active
34 | C[C@@H]1CN(Cc2c[nH]nc2-c2cc3ccccc3[nH]2)CCN1c1ccc(C(F)(F)F)cn1 | Active
35 | C[C@@H]1CN(Cc2c[nH]nc2C2CCN(C=O)CC2)CCN1c1ccc(C(F)(F)F)cn1 | Active

The next lines start with the values.

Row | inhibition | SMILES
36 | Active | C[C@@H]1CN(Cc2c[nH]nc2-c2c[nH]c(C(N)=O)c2)CCN1c1ccc(C(F)(F)F)cn1
37 | Active | C[C@@H]1CN(Cc2c[nH]nc2/C=C2\NC(=N)NC2=O)CCN1c1ccc(C(F)(F)F)cn1
38 | Active | C[C@@H]1CN(Cc2c[nH]nc2-c2ccc(C(=O)O)o2)CCN1c1ccc(C(F)(F)F)cn1
39 | Active | C[C@@H]1CN(Cc2c[nH]nc2-c2nc(C(N)=O)c[nH]2)CCN1c1ccc(C(F)(F)F)cn1
40 | Active | C[C@@H]1CN(Cc2c[nH]nc2-c2ccc(C#N)[nH]2)CCN1c1ccc(C(F)(F)F)cn1
41 | Active | C[C@@H]1CN(Cc2c[nH]nc2-c2cc(C(N)=O)c[nH]2)CCN1c1ccc(C(F)(F)F)cn1
42 | Active | C[C@@H]1CN(Cc2c[nH]nc2-c2ccc(C(N)=O)o2)CCN1c1ccc(C(F)(F)F)cn1
43 | Active | C[C@@H]1CN(Cc2c[nH]nc2-c2nc(C#N)c[nH]2)CCN1c1ccc(C(F)(F)F)cn1
44 | Active | C[C@@H]1CN(Cc2c[nH]nc2-c2cc(C(N)=O)co2)CCN1c1ccc(C(F)(F)F)cn1
45 | Active | C[C@@H]1CN(Cc2c[nH]nc2-c2ccc(C(N)=O)[nH]2)CCN1c1ccc(C(F)(F)F)cn1
46 | Active | C[C@@H]1CN(Cc2c[nH]nc2-c2nc(C(=N)N)c[nH]2)CCN1c1ccc(C(F)(F)F)cn1
47 | Active | C[C@@H]1CN(Cc2c[nH]nc2/C=C2\NC(=O)NC2=O)CCN1c1ccc(C(F)(F)F)cn1
48 | Active | C[C@@H]1CN(Cc2c[nH]nc2-c2cc(C#N)c[nH]2)CCN1c1ccc(C(F)(F)F)cn1
49 | Active | C[C@@H]1CN(Cc2c[nH]nc2-c2cc(C(=O)O)co2)CCN1c1ccc(C(F)(F)F)cn1
50 | Active | C[C@@H]1CN(Cc2c[nH]nc2-c2c[nH]c(C#N)c2)CCN1c1ccc(C(F)(F)F)cn1
51 | Active | Cc1cnc(-c2n[nH]cc2CN2CCN(c3ccc(C(F)(F)F)cn3)[C@H](C)C2)[nH]1
52 | Active | Cc1nc(-c2n[nH]cc2CN2CCN(c3ccc(C(F)(F)F)cn3)[C@H](C)C2)[nH]c1C
53 | Active | C[C@@H]1CN(Cc2c[nH]nc2/C=C2\NC(=S)NC2=O)CCN1c1ccc(C(F)(F)F)cn1
54 | Active | C[C@@H]1CN(Cc2c[nH]nc2-c2ccc(C#N)c(=O)[nH]2)CCN1c1ccc(C(F)(F)F)cn1
